From patent publication US9504252B2, “Microbiocides and uses thereof” (Buckman Laboratories International, Inc., priority 2014, dated 2016)
Entries after “also recorded” stand apart in the source; their conditions may differ.

Legend:
[1] = test system: sulfate reducing bacteria (SRB); experiment: kill study, API broth serial dilution (SRB); assay type: cell-based; details: for API SERIES: SRB count, seven days, 30° C.
Protocol: (§1) A one gallon sample of cone water from a contaminated drilling fluid (run through a hydrocyclone) in the DJ (Denver-Julesburg Basin) formation was employed for these studies. The cone water pH was measured at 6.4 and the redox potential was at 34.6. The sample included anaerobic sulfate reducing, aerobic and anaerobic acid producing bacteria and general heterotrophic bacteria. Both organism types were present in this sample with the SRB+H2S at levels in excess of 10^12 bacteria per milliliter in the original sample.
(§2) In order to ensure that the active range was captured, the contaminated water was diluted with Butterfield phosphate buffer solution to a concentration of 0.1% of its original concentration. Serial dilutions were made using 1 cc sterile syringes to inoculate 9.0 mL anaerobic American Petroleum Institute (API) broth with an iron nail designed for sulfate reducing bacteria (SRB). In addition, Acid Producing B acteria (APB) and General Heterotrophic Bacteria (GHB) were tested using serial dilutions in 9 mL phenol red (PR) broth. The media salinity was matched to the substrate salinity of ≈0.5% that was measured by percent Total Dissolved Solids (TDS). Additionally, an untreated control was included. In all cases the concentration was determined on a weight/weight basis of parts per million (milligrams per kilogram). Each aliquot was continuously mixed (in a thermally controlled incubator) well after the addition of the biocide and maintained at 30° C. for the duration of study.
(§3) Untreated and treated aliquots were inspected after seven days checking to see if the bottles the API bottles turned black (indicating positive SRB growth) and to see if the PRD bottles turned yellow (indicating the presence of APB) and/or turbidity (indicating the presence of GHB). A color change at the highest dilution indicated the log quantity of organisms present.

[2] = test system: Acid Producing Bacteria (APB) and General Heterotrophic Bacteria (GHB); experiment: kill study, phenol red broth serial dilution (APB/GHB); assay type: cell-based; details: for PRD SERIES: APB and GHB count, seven days, 30° C.
Protocol: as §1, §2, §3

## CNC(=S)[S-].[Na+] [SNMDTC, sodium-N-methyldithiocarbamate]
[1]; 1,000 ppm
  decrease in SRB concentration: did not appear to be any noticeable decrease
[1]; 1,000 ppm total biocide
  API SERIES: >10^4
[1]; 10,000 ppm total biocide
  API SERIES: >10^2
[1]; 10,000 ppm, over a period of eight days
  decrease in bacterial concentration of SRB: two
[2]; 1,000 ppm
  decrease in APB/GHB concentration: did not appear to be any noticeable decrease; also recorded: did not have any noticeable effect
[2]; 1,000 ppm total biocide
  PRD SERIES: ≧10^3
[2]; 10,000 ppm total biocide
  PRD SERIES: >10^2
